Reference: US10206394B2, “Herbicidal compounds” (Syngenta Participations AG, priority 2014, dated 2019)
Where two headings read alike, the source gives them in different places.

Columns and labels:
Test in all cases: Glasshouse assay for herbicidal activity (pre- and post-emergence), percentage phytotoxicity
Type in all cases: in vivo
Avena fatua (AVEFA) = conditions: Avena fatua, Rate 250 g/ha, 100%=total damage, 0%=no damage
Procedure, shortened: (§1)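 Pot-grown plants treated one day after sowing (pre-emergence) or at about 12 days (post-emergence); glasshouse at 24/18° C (warm) or 20/16° C (cool species) day/night, 16 h light, 65% humidity. Visual % phytotoxicity (0 = none, 100 = total damage) scored at 15 DAA post or 20 DAA pre.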

[1] = tested on: Alopecurus myosuroides (ALOMY); conditions: Alopecurus myosuroides, Rate 250 g/ha, 100%=total damage, 0%=no damage
Procedure, shortened: as §1

Lolium perenne (LOLPE) = conditions: Lolium perenne, Rate 250 g/ha, 100%=total damage, 0%=no damage
Procedure, shortened: as §1

[2] = tested on: Echinochloa crus-galli (ECHCG); conditions: Echinochloa crus-galli, Rate 250 g/ha, 100%=total damage, 0%=no damage
Procedure, shortened: as §1

[3] = post-emergence, 360 h, post-emergence, visual assessment 15 DAA, read-out: Post-emergence herbicidal activity (percentage phytotoxicity) AVEFA POST
[4] = pre-emergence, 480 h, pre-emergence, visual assessment 20 DAA, read-out: Pre-emergence herbicidal activity (percentage phytotoxicity) AVEFA PRE
[5] = post-emergence, 360 h, post-emergence, visual assessment 15 DAA, read-out: Post-emergence herbicidal activity (percentage phytotoxicity) ALOMY POST
[6] = pre-emergence, 480 h, pre-emergence, visual assessment 20 DAA, read-out: Pre-emergence herbicidal activity (percentage phytotoxicity) ALOMY PRE
[7] = post-emergence, 360 h, post-emergence, visual assessment 15 DAA, read-out: Post-emergence herbicidal activity (percentage phytotoxicity) LOLPE POST
[8] = pre-emergence, 480 h, pre-emergence, visual assessment 20 DAA, read-out: Pre-emergence herbicidal activity (percentage phytotoxicity) LOLPE PRE
[9] = post-emergence, 360 h, post-emergence, visual assessment 15 DAA, read-out: Post-emergence herbicidal activity (percentage phytotoxicity) ECHCG POST
[10] = pre-emergence, 480 h, pre-emergence, visual assessment 20 DAA, read-out: Pre-emergence herbicidal activity (percentage phytotoxicity) ECHCG PRE

SMILES	pest or weed control at 250 g/ha (Avena fatua (AVEFA); [3]) [%]	pest or weed control at 250 g/ha (Avena fatua (AVEFA); [4]) [%]	pest or weed control at 250 g/ha [1, 5] [%]	pest or weed control at 250 g/ha [1, 6] [%]	pest or weed control at 250 g/ha (Lolium perenne (LOLPE); [7]) [%]	pest or weed control at 250 g/ha (Lolium perenne (LOLPE); [8]) [%]	pest or weed control at 250 g/ha [2, 9] [%]	pest or weed control at 250 g/ha [2, 10] [%]
Cc1cc(-c2ncc(Cl)cn2)cc(C)c1C1C(=O)CC(CC(=O)N(C)Cc2cccc(F)c2)C1=O (stereo not drawn) [Compound B338]	100	80	100	100	90	100	100	100
Cc1cc(-c2ncc(Cl)cn2)cc(C)c1C1C(=O)CC(CC(=O)NCc2cccc(Br)c2)C1=O (stereo not drawn) [Compound B339]	100	70	100	40	100	90	100	100
Cc1cc(-c2ncc(Cl)cn2)cc(C)c1C1C(=O)CC(CC(=O)NC(C)C)C1=O (stereo not drawn) [Compound B340]	100	100	100	100	100	100	100	100
C=C(C)CNC(=O)CC1CC(=O)C(c2c(C)cc(-c3ncc(Cl)cn3)cc2C)C1=O (stereo not drawn) [Compound B341]	100	80	100	100	100	80	100	100
Cc1cc(-c2ncc(Cl)cn2)cc(C)c1C1C(=O)CC(CC(=O)NCC2CC2)C1=O (stereo not drawn) [Compound B342]	100	90	100	100	100	100	100	100
C#CC(C)(C)NC(=O)CC1CC(=O)C(c2c(C)cc(-c3ncc(Cl)cn3)cc2C)C1=O (stereo not drawn) [Compound B343]	100	90	100	100	100	100	100	100
COCC(C)(C)NC(=O)CC1CC(=O)C(c2c(C)cc(-c3ncc(Cl)cn3)cc2C)C1=O (stereo not drawn) [Compound B344]	100	80	100	90	90	80	100	100
C=CC(C)NC(=O)CC1CC(=O)C(c2c(C)cc(-c3ncc(Cl)cn3)cc2C)C1=O (stereo not drawn) [Compound B345]	100	90	100	100	100	100	100	100
COCC(C)NC(=O)CC1CC(=O)C(c2c(C)cc(-c3ncc(Cl)cn3)cc2C)C1=O (stereo not drawn) [Compound B346]	100	90	100	100	100	100	100	100
CCN(C)C(=O)CC1CC(=O)C(c2c(C)cc(-c3ncc(Cl)cn3)cc2C)C1=O (stereo not drawn) [Compound B347]	100	100	100	100	100	100	100	100
Cc1cc(-c2ncc(Cl)cn2)cc(C)c1C1C(=O)CC(CC(=O)N(C)C(C)(C)C)C1=O (stereo not drawn) [Compound B348]	100	80	100	80	100	90	100	100
C#CCN(C)C(=O)CC1CC(=O)C(c2c(C)cc(-c3ncc(Cl)cn3)cc2C)C1=O (stereo not drawn) [Compound B349]	100	90	100	100	100	90	100	90
C=CCNC(=O)CC1CC(=O)C(c2c(C)cc(-c3ncc(Cl)cn3)cc2C)C1=O (stereo not drawn) [Compound B350]	100	90	100	100	100	100	100	100
Cc1cc(-c2ncc(Cl)cn2)cc(C)c1C1C(=O)CC(CC(=O)N(C)C(C)C)C1=O (stereo not drawn) [Compound B351]	100	90	100	100	100	100	100	100
Cc1cc(-c2ncc(Cl)cn2)cc(C)c1C1C(=O)CC(CC(=O)NC/C=C/Cl)C1=O (stereo not drawn) [Compound B352]	90	90	100	100	100	90	100	100
Cc1cc(-c2ncc(Cl)cn2)cc(C)c1C1C(=O)CC(CC(=O)NCc2cccs2)C1=O (stereo not drawn) [Compound B353]	100	90	90	80	100	90	100	100
Cc1cc(-c2ncc(Cl)cn2)cc(C)c1C1C(=O)CC(CC(=O)NCc2cccc(Cl)c2)C1=O (stereo not drawn) [Compound B354]	100	80	90	70	90	80	100	90
Cc1ccc(CNC(=O)CC2CC(=O)C(c3c(C)cc(-c4ncc(Cl)cn4)cc3C)C2=O)cc1 (stereo not drawn) [Compound B355]	90	70	80	50	100	70	100	90
COc1ccc(CNC(=O)CC2CC(=O)C(c3c(C)cc(-c4ncc(Cl)cn4)cc3C)C2=O)cc1 (stereo not drawn) [Compound B356]	100	60	90	60	100	80	100	100
Cc1cc(-c2ccc(Cl)cn2)cc(C)c1C1C(=O)CC(CC(=O)NCc2cccc(F)c2)C1=O (stereo not drawn) [Compound B357]	100	90	90	80	90	100	100	100
Cc1cc(-c2ccc(Cl)cn2)cc(C)c1C1C(=O)CC(CC(=O)N(C)Cc2cccc(F)c2)C1=O (stereo not drawn) [Compound B358]	100	100	100	90	90	90	100	100
